ChEMBL document CHEMBL1135370, “Selective urokinase-type plasminogen activator (uPA) inhibitors. Part 2: (3-Substituted-5-halo-2-pyridinyl)guanidines” (Bioorg Med Chem Lett, 2002)

Tests used:
[1] = molecular target: T1, Tissue-type plasminogen activator (Homo sapiens, UniProt P00750); assay: Ability to inhibit tissue plasminogen activator (quadratech) and S-2444 as substrate
Target sequence in this assay (P00750 whole entry): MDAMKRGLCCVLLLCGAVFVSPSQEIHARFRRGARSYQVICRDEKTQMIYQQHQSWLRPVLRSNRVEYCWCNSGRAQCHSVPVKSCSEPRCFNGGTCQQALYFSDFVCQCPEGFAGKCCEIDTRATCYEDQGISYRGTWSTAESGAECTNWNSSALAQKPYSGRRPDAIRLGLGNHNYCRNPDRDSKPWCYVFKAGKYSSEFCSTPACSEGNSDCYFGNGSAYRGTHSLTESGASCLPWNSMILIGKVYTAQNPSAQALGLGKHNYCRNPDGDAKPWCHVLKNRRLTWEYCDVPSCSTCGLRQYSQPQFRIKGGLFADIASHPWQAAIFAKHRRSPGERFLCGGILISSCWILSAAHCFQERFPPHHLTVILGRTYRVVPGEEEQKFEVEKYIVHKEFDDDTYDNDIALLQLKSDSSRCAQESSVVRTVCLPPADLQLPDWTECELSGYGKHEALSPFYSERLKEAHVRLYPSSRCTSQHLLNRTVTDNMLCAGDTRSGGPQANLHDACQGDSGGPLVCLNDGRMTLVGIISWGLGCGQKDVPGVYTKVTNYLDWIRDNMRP

[2] = molecular target: Urokinase-type plasminogen activator (Homo sapiens, UniProt P00749); assay: In vitro inhibition of human urokinase Plasminogen Activator.
[3] = molecular target: T1, Tissue-type plasminogen activator; assay: Ability to inhibit human tissue plasminogen activator stimulator at concentration of 1 uM
Target sequence in this assay (P00750 36-562 limits assumed): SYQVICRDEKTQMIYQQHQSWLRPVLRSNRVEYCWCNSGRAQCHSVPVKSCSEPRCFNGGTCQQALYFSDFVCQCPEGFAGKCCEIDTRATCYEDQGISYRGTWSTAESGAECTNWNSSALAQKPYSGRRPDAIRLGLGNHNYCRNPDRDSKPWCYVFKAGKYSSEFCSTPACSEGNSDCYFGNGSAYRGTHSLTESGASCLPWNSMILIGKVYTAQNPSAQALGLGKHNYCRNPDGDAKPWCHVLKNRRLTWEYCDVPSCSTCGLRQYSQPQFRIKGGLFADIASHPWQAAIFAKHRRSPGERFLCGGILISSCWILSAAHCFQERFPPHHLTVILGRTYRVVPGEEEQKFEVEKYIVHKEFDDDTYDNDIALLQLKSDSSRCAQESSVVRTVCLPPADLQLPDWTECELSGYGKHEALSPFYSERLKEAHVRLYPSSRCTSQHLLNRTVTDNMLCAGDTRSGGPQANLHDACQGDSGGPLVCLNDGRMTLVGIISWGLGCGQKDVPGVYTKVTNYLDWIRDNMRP

Plasminogen [4] = molecular target: T2, Plasminogen (Homo sapiens, UniProt P00747); assay: Ability to inhibit human plasmin using Chromozym-PL as substrate at concentration of 1 uM
T2 sequence (P00747 97-580 limits assumed): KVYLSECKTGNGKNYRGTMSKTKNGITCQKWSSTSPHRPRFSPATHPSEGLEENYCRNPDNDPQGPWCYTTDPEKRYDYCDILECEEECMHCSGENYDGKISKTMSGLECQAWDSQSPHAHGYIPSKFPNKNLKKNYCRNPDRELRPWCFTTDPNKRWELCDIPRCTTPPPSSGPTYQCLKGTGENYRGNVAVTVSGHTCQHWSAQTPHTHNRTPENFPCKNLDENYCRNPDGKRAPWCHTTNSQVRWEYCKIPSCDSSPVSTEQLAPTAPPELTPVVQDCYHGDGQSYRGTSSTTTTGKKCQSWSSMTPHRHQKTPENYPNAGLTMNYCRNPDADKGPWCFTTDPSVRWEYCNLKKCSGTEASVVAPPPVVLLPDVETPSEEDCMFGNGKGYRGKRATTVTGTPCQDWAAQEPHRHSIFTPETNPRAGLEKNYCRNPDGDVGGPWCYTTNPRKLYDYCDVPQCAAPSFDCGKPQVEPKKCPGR
T2 sequence (P00747 581-810 limits assumed): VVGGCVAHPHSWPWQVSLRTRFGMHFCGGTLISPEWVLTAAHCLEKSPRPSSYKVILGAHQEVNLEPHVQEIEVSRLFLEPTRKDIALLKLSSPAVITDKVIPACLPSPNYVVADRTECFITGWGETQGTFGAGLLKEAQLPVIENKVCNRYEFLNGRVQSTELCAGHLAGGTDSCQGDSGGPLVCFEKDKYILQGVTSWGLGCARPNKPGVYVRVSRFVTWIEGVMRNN

[5] = molecular target: T1, Tissue-type plasminogen activator; assay: Ability to inhibit tissue plasminogen activator (quadratech) and S-2444 as substrate at concentration of 1 mM
Target sequence in this assay (P00750 36-562 limits assumed): as the sequence (P00750 36-562 limits assumed) above

Plasminogen [6] = molecular target: T2, Plasminogen; assay: In vitro inhibition of human plasmin.; parameters: concentration or dose not given beside the values; details: concentration not given here
Plasminogen [7] = molecular target: T2, Plasminogen; assay: Ability to inhibit plasmin using human plasmin (quadratech) and Chromozym-PL (boehringer) as substrate
[8] = molecular target: T1, Tissue-type plasminogen activator; assay: Ability to inhibit tissue plasminogen activator (quadratech) and S-2444 as substrate at concentration of 300 uM
Target sequence in this assay (P00750 36-562 limits assumed): as above

Plasminogen [9] = molecular target: T2, Plasminogen; assay: Ability to inhibit plasmin using human plasmin (quadratech) and Chromozym-PL (boehringer) as substrate at concentration of 100 uM

Row | Structure (SMILES) | Ki [1] [µM] | Ki [2] [µM] | inhibition [5] [%] | inhibition (Plasminogen [6]) [%] | also measured
1 | NC(N)=Nc1ncc(Cl)cc1/C=C/c1cccc(C(=O)O)c1 | 52 | 0.17 | – | – | –
2 | N=C(N)Nc1ncc(Cl)cc1/C=C/C(=O)O | – | – | – | – | inhibition [3]: < 50%; Ki (Plasminogen [4]): 279 µM
3 | CN(Cc1ccccc1)C(=O)/C=C/c1cc(Cl)cnc1N=C(N)N | – | 2 | < 50 | < 50 | –
4 | NC(N)=Nc1ncc(Cl)cc1OCC(=O)NCc1ccccc1 | – | 16.1 | – | – | –
5 | N=C(N)Nc1ncc(Cl)cc1CCC(=O)O | – | – | < 50 | < 50 | –
6 | N=C(N)Nc1ncc(Cl)cc1/C=C/C(=O)NCc1ccccc1 | – | 0.77 | < 50 | < 50 | –
7 | CNC(=O)/C=C/c1cc(Cl)cnc1N=C(N)N | – | 1.28 | < 50 | < 50 | –
8 | COCCOc1cc(Cl)cnc1N=C(N)N | – | 16.4 | < 50 | < 50 | –
9 | COc1ccc(/C=C/c2cc(Cl)cnc2N=C(N)N)cc1 | 60.1 | 0.69 | – | – | Ki (Plasminogen [7]): 42.5 µM
10 | N=C(N)Nc1ncc(Cl)cc1OCC(=O)O | – | – | < 50 | < 50 | –
11 | N=C(N)Nc1ncc(Cl)cc1/C=C/c1ccc2c(c1)OCO2 | – | 0.49 | – | < 50 | inhibition [8]: 50%
12 | N=C(N)Nc1ncc(Cl)cc1/C=C/C1CCCCC1 | 71.5 | – | – | < 50 | –
13 | N=C(N)Nc1ncc(Cl)cc1/C=C/c1cccc(C(=O)O)c1 | – | – | – | – | inhibition (Plasminogen [9]): < 50%
14 | N=C(N)Nc1ncc(Cl)cc1/C=C/c1ccccn1 | 258 | 1.6 | – | < 50 | –
15 | N=C(N)Nc1ncc(Cl)cc1/C=C/C(=O)N1CCOCC1 | – | 2.1 | < 50 | < 50 | –

Further lines, with some results ahead:

Row | Ki [1] [µM] | Ki [2] [µM] | inhibition [5] [%] | inhibition (Plasminogen [6]) [%] | Structure (SMILES) | also measured
16 | – | 166 | < 50 | < 50 | N=C(N)Nc1ncc(Cl)cc1-c1ccccc1 | –
17 | 65.9 | – | – | – | N=C(N)Nc1ncc(Cl)cc1C#Cc1ccccc1 | Ki (Plasminogen [7]): 218 µM
18 | – | 0.92 | < 50 | < 50 | N=C(N)Nc1ncc(Cl)cc1OCc1ccccc1 | –
19 | 342 | 2.13 | – | < 50 | N=C(N)Nc1ncc(Cl)cc1Oc1ccccc1 | –
20 | 53.8 | – | – | < 50 | N=C(N)Nc1ncc(Cl)cc1/C=C/c1ccccc1 | –
21 | – | – | < 50 | < 50 | N=C(N)Nc1ncc(Cl)cc1OCC(=O)NCc1ccccc1 | –
